According to PubChem BioAssay (NCI):
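In this assay, cells in 96-well plates receive the compound at five concentrations for 48 hours. Endpoints are linearly interpolated between the surrounding concentrations. TGI is the concentration that stops growth completely.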

Key:
Experiment in all cases: DTP human tumour cell line panel, 48 h
[1] = system: MDA-MB-435
[2] = system: SW-620 colon
[3] = system: PC-3 prostate
[4] = system: K-562 leukemia
[5] = system: SNB-75 CNS
[6] = system: HCC-2998 colon
[7] = system: NCI/ADR-RES ovarian
[8] = system: M14 melanoma
[9] = system: DU-145 prostate
[10] = system: SK-MEL-5 melanoma
[11] = system: HT29 colon
[12] = system: IGROV1 ovarian
[13] = system: OVCAR-3 ovarian
[14] = system: OVCAR-8 ovarian
[15] = system: MOLT-4 leukemia
[16] = system: SF-539 CNS
[17] = system: A549 NSCLC
[18] = system: U251 CNS
[19] = system: SK-OV-3 ovarian
[20] = system: UACC-62 melanoma
[21] = system: HCT-116 colon
[22] = system: SNB-19 CNS
[23] = system: A498 renal
[24] = system: SK-MEL-2 melanoma
[25] = system: NCI-H23 lung
[26] = system: RPMI-8226 leukemia
[27] = system: 786-0 renal
[28] = system: HCT-15 colon
[29] = system: SK-MEL-28 melanoma
[30] = system: HOP-62 NSCLC
[31] = system: LOX IMVI melanoma
[32] = system: CAKI-1 renal
[33] = system: EKVX NSCLC
[34] = system: MDA-N
[35] = system: CCRF-CEM leukemia
[36] = system: MDA-MB-231 breast
[37] = system: HOP-92 NSCLC
[38] = system: RXF 393 renal
[39] = system: OVCAR-5 ovarian
[40] = system: T-47D breast
[41] = system: COLO 205 colon
[42] = system: OVCAR-4 ovarian
[43] = system: MCF7 breast
[44] = system: BT-549 breast
[45] = system: HL-60(TB) leukemia
[46] = system: SF-268 CNS
[47] = system: SF-295 CNS
[48] = system: HS 578T breast
[49] = system: KM12 colon
[50] = system: SN12C renal
[51] = system: NCI-H226 lung
[52] = system: TK-10 renal
[53] = system: ACHN renal
[54] = system: MALME-3M melanoma
[55] = system: UACC-257 melanoma
[56] = system: NCI-H460 lung
[57] = system: NCI-H522 lung
[58] = system: UO-31 renal
[59] = system: SR leukemia

`CC(C)CCCC(C)[C@H]1CC[C@H]2[C@@H]3CC[C@H]4C[C@@H](CCC=C(c5cc(Cl)c(O)c(C(=O)OC(C)C)c5)c5cc(Cl)c(O)c(C(=O)OC(C)C)c5)CC[C@]4(C)[C@H]3CC[C@]12C` (some centres undefined) was tested, and the TGI [1] was > 50 µM, the TGI [2] was > 50 µM and the TGI [3] was > 50 µM. The TGI [4] was > 50 µM, the TGI [5] was > 50 µM and the TGI [6] was > 50 µM. For the same compound, the TGI [7] was > 50 µM, the TGI [8] was > 50 µM and the TGI [9] was > 50 µM. The TGI [10] was > 50 µM, the TGI [11] was > 50 µM and the TGI [12] was > 50 µM. The TGI [13] was > 50 µM, the TGI [14] was > 50 µM and the TGI [15] was > 50 µM. The TGI [16] was > 50 µM, the TGI [17] was > 50 µM and the TGI [18] was > 50 µM. For the same compound, the TGI [19] was > 50 µM, the TGI [20] was > 50 µM and the TGI [21] was > 50 µM. The TGI [22] was > 50 µM, the TGI [23] was > 50 µM and the TGI [24] was > 50 µM. For the same compound, the TGI [25] was > 50 µM, the TGI [26] was > 50 µM and the TGI [27] was > 50 µM. The TGI [28] was > 50 µM, the TGI [29] was > 50 µM and the TGI [30] was > 50 µM. The TGI [31] was > 50 µM, the TGI [32] was > 50 µM and the TGI [33] was > 50 µM. The TGI [34] was > 50 µM, the TGI [35] was > 50 µM and the TGI [36] was > 50 µM. For the same compound, the TGI [37] was > 50 µM, the TGI [38] was > 50 µM and the TGI [39] was > 50 µM. For the same compound, the TGI [40] was > 50 µM, the TGI [41] was > 50 µM and the TGI [42] was > 50 µM. The TGI [43] was > 50 µM, the TGI [44] was > 50 µM and the TGI [45] was > 50 µM. For the same compound, the TGI [46] was > 50 µM, the TGI [47] was > 50 µM and the TGI [48] was > 50 µM. For the same compound, the TGI [49] was > 50 µM and the TGI [50] was > 50 µM.

`Cc1ccc(NC(=O)C(Cc2c[nH]c3ccccc23)NC(=O)Oc2ccccc2)cc1C` (centres undefined) was tested, and the TGI [1] was > 100 µM, the TGI [2] was > 100 µM and the TGI [3] was > 100 µM. For the same compound, the TGI [4] was > 100 µM, the TGI [7] was > 100 µM and the TGI [8] was > 100 µM. The TGI [9] was > 100 µM, the TGI [51] was > 100 µM and the TGI [10] was > 100 µM. The TGI [11] was > 100 µM, the TGI [52] was 25.5 µM and the TGI [12] was > 100 µM. For the same compound, the TGI [13] was > 100 µM, the TGI [14] was > 100 µM and the TGI [15] was > 100 µM. For the same compound, the TGI [53] was > 100 µM, the TGI [16] was > 100 µM and the TGI [54] was 99.5 µM. The TGI [17] was > 100 µM, the TGI [18] was > 100 µM and the TGI [19] was > 100 µM. The TGI [20] was > 100 µM, the TGI [21] was > 100 µM and the TGI [22] was > 100 µM. The TGI [23] was 88.4 µM, the TGI [24] was > 100 µM and the TGI [25] was > 100 µM. For the same compound, the TGI [26] was 80.9 µM, the TGI [28] was > 100 µM and the TGI [55] was > 100 µM. The TGI [56] was > 100 µM, the TGI [29] was > 100 µM and the TGI [30] was > 100 µM. The TGI [31] was > 100 µM, the TGI [32] was > 100 µM and the TGI [33] was > 100 µM. The TGI [34] was > 100 µM, the TGI [35] was > 100 µM and the TGI [36] was > 100 µM. For the same compound, the TGI [37] was > 100 µM, the TGI [57] was > 100 µM and the TGI [38] was > 100 µM. For the same compound, the TGI [58] was > 100 µM, the TGI [39] was > 100 µM and the TGI [40] was > 100 µM. For the same compound, the TGI [41] was > 100 µM, the TGI [42] was > 100 µM and the TGI [43] was > 100 µM. The TGI [44] was > 100 µM, the TGI [45] was > 100 µM and the TGI [46] was > 100 µM. For the same compound, the TGI [47] was > 100 µM, the TGI [48] was > 100 µM and the TGI [49] was > 100 µM. For the same compound, the TGI [50] was > 100 µM.

`Brc1ccc2c3c1[C@H]1O[C@H]1c1cccc(c1-3)[C@@H]1O[C@H]21` was tested, and the TGI [1] was 29.4 µM, the TGI [3] was 33.4 µM and the TGI [4] was > 100 µM. The TGI [5] was 26.3 µM, the TGI [7] was 76.8 µM and the TGI [8] was 32.4 µM. The TGI [59] was > 100 µM, the TGI [9] was 25.6 µM and the TGI [51] was 64 µM. It also gave a TGI [10] of 30.2 µM, a TGI [11] of 34.7 µM and a TGI [52] of 37.4 µM. For the same compound, the TGI [14] was 37.7 µM, the TGI [15] was > 100 µM and the TGI [53] was 31.9 µM. It also gave a TGI [54] of 33 µM, a TGI [17] of 49.4 µM and a TGI [18] of 37.1 µM. The TGI [19] was 35.1 µM, the TGI [20] was 32.5 µM and the TGI [21] was 37.8 µM. The TGI [22] was 34.3 µM, the TGI [23] was 41.1 µM and the TGI [24] was 41.6 µM. For the same compound, the TGI [25] was 38.7 µM, the TGI [27] was 34.6 µM and the TGI [28] was 49.1 µM. It also gave a TGI [55] of 34.2 µM, a TGI [29] of 36.5 µM and a TGI [30] of 30.3 µM. For the same compound, the TGI [31] was 9.39 µM, the TGI [32] was 31.6 µM and the TGI [33] was 36.5 µM. It also gave a TGI [34] of 35.4 µM, a TGI [36] of 40.6 µM and a TGI [37] of 38.3 µM. For the same compound, the TGI [57] was 27.6 µM, the TGI [58] was 32.1 µM and the TGI [39] was 37.2 µM. It also gave a TGI [40] of 26.8 µM, a TGI [41] of 38.3 µM and a TGI [42] of 28.8 µM. For the same compound, the TGI [43] was 73.1 µM, the TGI [44] was 31.5 µM and the TGI [46] was 36.8 µM. It also gave a TGI [47] of 29.3 µM, a TGI [48] of 59.5 µM and a TGI [49] of 28.8 µM. It also gave a TGI [50] of 33.3 µM.

In the case of `COc1cc2cc(C(=O)N3CC(CCl)c4c3cc(NC(=O)OCc3ccc([N+](=O)[O-])cc3)c3ccccc43)[nH]c2c(OC)c1OC` (centres undefined), the TGI [1] is reported as > 100 µM, the TGI [2] is reported as > 100 µM and the TGI [3] is reported as > 100 µM. For the same compound, the TGI [5] was 67.3 µM, the TGI [6] was 16.3 µM and the TGI [7] was > 100 µM. The TGI [8] was > 100 µM, the TGI [9] was 18 µM and the TGI [51] was > 100 µM. The TGI [10] was > 100 µM, the TGI [11] was > 100 µM and the TGI [12] was > 90 µM. For the same compound, the TGI [13] was > 100 µM, the TGI [14] was > 100 µM and the TGI [15] was > 100 µM. For the same compound, the TGI [53] was > 34.5 µM, the TGI [16] was > 100 µM and the TGI [54] was > 100 µM. The TGI [17] was > 100 µM, the TGI [18] was > 100 µM and the TGI [19] was > 100 µM. For the same compound, the TGI [20] was > 100 µM, the TGI [21] was > 79.8 µM and the TGI [22] was > 100 µM. The TGI [24] was > 100 µM, the TGI [25] was > 45.4 µM and the TGI [26] was > 100 µM. The TGI [27] was > 39.3 µM, the TGI [28] was > 100 µM and the TGI [55] was > 100 µM. For the same compound, the TGI [56] was > 39.1 µM, the TGI [29] was > 100 µM and the TGI [30] was > 100 µM. For the same compound, the TGI [31] was > 100 µM, the TGI [32] was > 39.4 µM and the TGI [33] was > 100 µM. The TGI [34] was > 100 µM, the TGI [35] was > 57.6 µM and the TGI [36] was > 81.5 µM. For the same compound, the TGI [37] was > 90.5 µM, the TGI [57] was > 76.7 µM and the TGI [38] was > 100 µM. The TGI [58] was 0.516 µM, the TGI [39] was > 100 µM and the TGI [40] was > 100 µM. For the same compound, the TGI [41] was > 100 µM, the TGI [42] was > 100 µM and the TGI [43] was > 100 µM. For the same compound, the TGI [44] was > 100 µM, the TGI [45] was > 38.5 µM and the TGI [46] was > 81.2 µM. For the same compound, the TGI [47] was > 56.2 µM, the TGI [48] was > 100 µM and the TGI [49] was > 74.2 µM. For the same compound, the TGI [50] was > 100 µM.
